From patent US6313171A, “Method for preventing or treating elevated blood lipid level-related diseases by administering cinnamic acid derivatives” (Korea Research Institute of Bioscience & Biotechnology, priority 1998, dated 2001)

What was measured:
main artery = assay: Analysis for fatty streak in the main artery of rabbits; type: in vivo, rabbit (New Zealand White)
Method: Cinnamic acid derivatives were purchased from Sigma Chemical Co. (St. Louis, Mo.). The rabbits were fed for 8 weeks while being allowed free access to the diets and water. The chest of each of the rabbits sacrificed in Step 2 was incised. […] The main artery was incised in the middle along the longitudinal axis and pinned to a dish. The moist artery was photographed and, then, the staining of fatty streaks was carried out in accordance with the method of […]., et al. (J. Lab. Clin. Med., 121, 103-110(1993)) as follows. A part of the incised main artery was washed three times with anhydrous propylene glycol for 2 min. and stained for 30 min. with a saturated solution of Oil Red O (ORO, Sigma Co.) dissolved in propylene glycol. Thereafter, the artery was washed twice with 85% propylene glycol for 3 min. to remove remaining staining solution and, then washed with physiological saline. The artery was photographed and the photograph was traced. The area of stained region (fatty streak region) was determined with an image analyzer (LEICA, Q-600, Germany) and its proportion (%) to the total arterial area was calculated.

[1] = type: in vivo, rabbit (New Zealand White); settings: rabbits, 1% cholesterol diet plus 0.1% derivative or 1 mg/kg Lovastatin, 8 weeks
Method: (§1) 30 three-month-old male New Zealand White rabbits (Yeonam Horticulture and Animal Husbandry College, Korea), each weighing about 2.5 to 2.6 kg, were raised under condition of temperature 20±2° C., relative humidity 55±5%, and photoperiod 12L/12D. The rabbits were divided into 5 groups and 5 groups of rabbits were fed with 5 different diets, i.e., RC4 diet (Oriental Yeast Co., Japan) containing 1% cholesterol (Control group); 1% cholesterol plus 1 mg/kg Lovastatin® (Merck, U.S.A.) (Lovastatin group); 1% cholesterol plus 0.1% 4-hydroxycinnamic acid (4-hydroxycinnamic acid group); 1% cholesterol plus 0.1% 3,4-dihydroxycinnamic acid (3,4-dihydroxycinnamic acid group); and 1% cholesterol plus 0.1% 3,4-dihydroxyhydrocinnamic acid (3,4-dihydroxyhydrocinnamic acid group), respectively. RC4 diet comprises 7.6% moisture, 22.8% crude protein, 2.8% crude fat, 8.8% crude ash, 14.4% crude cellulose and 43.6% soluble nitrogen-free substances. Cinnamic acid derivatives were purchased from Sigma Chemical Co. (St. Louis, Mo.).
(§2) The rabbits were fed for 8 weeks while being allowed free access to the diets and water.
After eight weeks, the rabbits were anesthetized with an intramuscular injection of ketamine (50 mg/kg) in the femoral region and sacrificed. A blood sample was taken from the heart of each rabbit, allowed to stand for 2 hours and centrifuged at 3,000 rpm for 15 minutes and the supernatant serum was separated and stored in a freezer before use.
The chemical analysis of blood was carried out by employing a blood chemical analyzer (CIBA Corning 550 Express, USA) to determine the changes in GOT, GPT, total cholesterol, HDL-cholesterol and triglyceride levels.

[2] = Farmer et al. 1995; cited from earlier work
liver = assay: Prevention of hepatic diseases: microscopic fatty liver grading in rabbits; type: in vivo, rabbit (New Zealand White)
Method: as §1, §2

What does the source list for `CC[C@H](C)C(=O)O[C@H]1C[C@@H](C)C=C2C=C[C@H](C)[C@H](CC[C@@H]3C[C@@H](O)CC(=O)O3)[C@H]21` [Lovastatin, reference compound]?
macrophage-lipid complex on the arterial endothelium (main artery; FIGS. 1A-1E, control: a thick layer): no or very thin layers of macrophage-lipid complex; Fatty streak (main artery; proportion of total arterial area, Oil Red O, rabbits, 8 weeks, Control 80 ± 8): 15 ± 3%; HDL/TC ([1]; Control 2.5 ± 0.4): 4.9 ± 2.6%; HDL-C (High density lipoprotein-cholesterol) ([1]; Control 50 ± 11): 58 ± 23 mg/dL; TG (Triglyceride) ([1]; Control 170 ± 30): 153 ± 95 mg/dL; TC (Total cholesterol) ([1]; Control 1995 ± 472): 1446 ± 263 mg/dL; side effects [2]: increase in creatine kinase in the liver and rhabdomyolysis; microscopic features of the liver (liver; FIGS. 2A-2E, control: many cells containing excessive fat around the central vein): many cells containing excessive fat were observed around the central vein; fatty liver grade (1+ to 4+) (liver; grades 1+(0-25%), 2+(26-50%), 3+(51-75), 4+(76-100%), rabbits, 8 weeks, Control 3.2 ± 0.3): 3.4 ± 0.5
